22 compounds from ChEMBL document CHEMBL5236544, “Furazans in Medicinal Chemistry” (J Med Chem, 2021) can be followed below.

One series has as its system MDR1. The experiment in a line: Efflux ratio of permeability in dog MDCK-MDR1 cells. The class given is ADME, cell-based, Canis lupus familiaris.
For series [1], the system named is Respiratory syncytial virus. Nature of the series: Antiviral activity against RSV. The class given is functional, organism-based. The conditions noted are these: human respiratory syncytial virus.
The next series relates to HASMC. Nature of the series: Antiproliferative activity against human HASMC cells assessed as inhibition of cell proliferation measured after 24 hrs by MTT assay. The class given is functional, cell-based. A general note: Tetrazolium dyes change colour on reduction, which living cells bring about.
For series [2], the species on record is Rattus norvegicus. The experiment in a line: Antihypertensive activity in spontaneously hypertensive rat model assessed as reduction in pulmonary arterial pressure. Format: functional.
For series [3], the species on record is Rattus norvegicus. Nature of the series: Antihypertensive activity in spontaneously hypertensive rat model assessed as reduction in systemic arterial pressure. The class given is functional.
The nature of series [4]: Inhibition of p70S6K (unknown origin). Further details: species or system Homo sapiens.
Series [5] is described as follows: Inhibition of GSK3 (unknown origin). More on the design: species or system Homo sapiens.
For series [6], the target named is Ribosomal protein S6 kinase alpha-1 (Homo sapiens, UniProt Q15418). The experiment in a line: Inhibition of RSK1 (unknown origin).
For another series, the system named is Influenza A virus. Nature of the series: Antiviral activity against influenza A H1N1. The class given is functional, organism-based.
The target in series [7] is T1, Amyloid-beta precursor protein (Homo sapiens, UniProt P05067). The experiment in a line: Inhibition of amyloid beta 42 in human H4 cells. Format: cell-based.
Series [8] in a line: physchem. The conditions noted are these: octanol/water.
Description: Lipophilicity, log D of the compound
A short description of series [9]: Inhibition of ROMK (unknown origin). Further details: species or system Homo sapiens.
Series [10] concerns the target Cyclin-dependent kinase inhibitor 1 (Homo sapiens, UniProt P38936). The experiment in a line: Inhibition of p21 (unknown origin).
Series [11] in a line: Inhibition of HIF (unknown origin). More on the design: species or system Homo sapiens.
A short description of series [12]: physchem. The conditions noted are these: octanol/water. The source holds these as a separate data set.
Description: Lipophilicity, log P of the compound
Series [13] is described as follows: Binding affinity to human wild type HIF2alpha assessed as dissociation constant by calorimetry assay.
The test system of a further series is LNCaP. Nature of the series: Antiproliferative activity against human LNCaP cells assessed as reduction in cell viability. The class given is functional, cell-based.
A further series concerns HCT-116. Nature of the series: cells. The conditions noted are these: Homo sapiens.
The test system of another series is HT-29. Nature of the series: cells. As to conditions: Homo sapiens.
For a further series, the target named is Lactate dehydrogenase (Plasmodium falciparum, UniProt Q0PJ46). The experiment in a line: Inhibition of recombinant Plasmodium falciparum LDH.
The nature of series [14]: Inhibition of human recombinant LDH.
In series [15] the test system is Plasmodium falciparum. Nature of the series: Antimalarial activity against drug resistant Plasmodium falciparum KI. The class given is functional, organism-based.
Series [16] can be described thus: Binding affinity to Plasmodium falciparum LDH assessed as inhibitory constant.
Series [17] relates to Plasmodium falciparum. The experiment in a line: Antimalarial activity against drug sensitive Plasmodium falciparum 3D7. The class given is functional, organism-based.
Series [18] has as its target T1, Amyloid-beta precursor protein. The experiment in a line: Inhibition of amyloid beta (unknown origin) aggregation at 10 uM relative to control.
Series [19] has the same target. Nature of the series: Inhibition of amyloid beta 42 in human HEK293 cells. The class given is cell-based.
Series [20] can be described thus: Cmax in mouse at 100 mg/kg, ip. Format: ADME, organism-based. Further details: dose 100 mg/kg, route ip. As to conditions: in vivo.
Series [21] concerns Plasmodium falciparum. The experiment in a line: Antimalarial activity against Plasmodium falciparum assessed as parasitic reduction at 100 mg/kg relative to control. Further details: scale not given: the % may be the effect or the level left. Format: functional.
The nature of series [22]: Half life in mouse at 10 mg/kg, ip. The conditions noted are these: in vivo. The class given is ADME, organism-based.
Series [23] can be described thus: Half life in mouse at 10 mg/kg, po. The class given is ADME, organism-based. The conditions noted are these: in vivo.
Series [24] is described as follows: Cmax in mouse at 100 mg/kg, po. Further details: dose 100 mg/kg, route po. The class given is ADME, organism-based. The conditions noted are these: in vivo.
Series [25] has as its system Plasmodium falciparum. Nature of the series: Antimalarial activity against Plasmodium falciparum assessed as parasitic reduction at 10 mg/kg of chloroquine relative to control. The class given is functional. Further details: scale not given: the % may be the effect or the level left.
For a further series, the system named is HeLa. The experiment in a line: cells. As to conditions: Homo sapiens.
Series [26] relates to Rattus norvegicus. The experiment in a line: Antihypertensive activity in spontaneously hypertensive rat model assessed as change in heart rate at 1 mmol/Kg, po measured after 10 hrs. Format: functional.
Series [27] deals with Rattus norvegicus. The experiment in a line: Antihypertensive activity in spontaneously hypertensive rat model assessed as change in blood pressure at 1 mg/kg, po measured after 10 hrs. The class given is functional.
In series [28] the test system is Rattus norvegicus. The experiment in a line: Antihypertensive activity in spontaneously hypertensive rat model assessed as change in heart rate at 1 umol/kg, po measured after 3 hrs. The class given is functional.
The test system of series [29] is Rattus norvegicus. Nature of the series: Antihypertensive activity in spontaneously hypertensive rat model assessed as change in blood pressure at 1 mg/kg, po measured after 3 hrs. Format: functional.
Series [30] concerns Rattus norvegicus. The experiment in a line: Antihypertensive activity in spontaneously hypertensive rat model assessed as change in heart rate at 10 mg/Kg, po measured after 6 hrs. The class given is functional.
Another series has as its system BaF3. The experiment in a line: Antiproliferative activity against mouse BaF3 cells transfected with FLT3-ITD assessed as cell growth inhibition. The class given is functional, cell-based.
Another series has as its system NT2. Nature of the series: Inhibition of camptothecin induced apoptosis in human NT2 cells incubated for 5 hrs in presence of camptothecin by ELISA method. The class given is functional, cell-based. The conditions noted are these: NT2, 5 h. On the technique in general: An ELISA detects its analyte on a solid surface through an enzyme-linked reagent.
The target of the next series is Histamine H2 receptor (Homo sapiens, UniProt P25021). The experiment in a line: Antagonist activity at histamine H2 receptor (unknown origin) assessed as inhibition constant.

pEC50, pIC50, pKd, pKi: −log10 of the molar value. Some results are limits rather than exact numbers.

T1 sequence (P05067 whole entry): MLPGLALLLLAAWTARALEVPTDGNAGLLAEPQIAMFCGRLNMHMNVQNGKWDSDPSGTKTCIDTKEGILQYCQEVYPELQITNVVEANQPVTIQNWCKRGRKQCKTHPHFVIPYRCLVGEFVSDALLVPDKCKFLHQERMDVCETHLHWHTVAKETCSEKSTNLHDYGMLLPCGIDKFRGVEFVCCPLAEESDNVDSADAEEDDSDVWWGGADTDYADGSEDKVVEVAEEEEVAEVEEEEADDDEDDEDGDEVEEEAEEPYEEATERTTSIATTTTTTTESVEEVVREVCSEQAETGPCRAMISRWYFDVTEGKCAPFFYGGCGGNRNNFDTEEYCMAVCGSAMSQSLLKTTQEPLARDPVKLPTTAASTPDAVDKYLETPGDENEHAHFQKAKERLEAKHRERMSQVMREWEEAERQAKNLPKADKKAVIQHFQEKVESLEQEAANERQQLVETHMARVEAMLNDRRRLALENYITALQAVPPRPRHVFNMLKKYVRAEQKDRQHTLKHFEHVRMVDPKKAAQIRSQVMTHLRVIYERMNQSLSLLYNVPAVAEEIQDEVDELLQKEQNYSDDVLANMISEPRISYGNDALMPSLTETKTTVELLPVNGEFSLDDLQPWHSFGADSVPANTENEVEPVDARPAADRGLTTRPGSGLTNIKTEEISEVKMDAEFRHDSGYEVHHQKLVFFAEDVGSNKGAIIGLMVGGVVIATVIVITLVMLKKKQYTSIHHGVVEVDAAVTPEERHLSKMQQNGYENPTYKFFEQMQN
Chain of Lactate dehydrogenase (Q0PJ46 whole entry): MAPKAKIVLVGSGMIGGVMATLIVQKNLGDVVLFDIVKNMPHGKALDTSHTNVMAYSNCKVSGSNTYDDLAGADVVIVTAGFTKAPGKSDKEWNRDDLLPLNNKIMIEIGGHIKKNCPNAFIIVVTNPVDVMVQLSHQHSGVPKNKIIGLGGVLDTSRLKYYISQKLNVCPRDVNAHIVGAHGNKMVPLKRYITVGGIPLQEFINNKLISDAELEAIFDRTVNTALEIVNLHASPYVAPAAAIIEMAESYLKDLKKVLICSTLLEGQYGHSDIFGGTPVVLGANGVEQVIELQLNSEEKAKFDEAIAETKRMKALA
Chain of Cyclin-dependent kinase inhibitor 1 (P38936 whole entry): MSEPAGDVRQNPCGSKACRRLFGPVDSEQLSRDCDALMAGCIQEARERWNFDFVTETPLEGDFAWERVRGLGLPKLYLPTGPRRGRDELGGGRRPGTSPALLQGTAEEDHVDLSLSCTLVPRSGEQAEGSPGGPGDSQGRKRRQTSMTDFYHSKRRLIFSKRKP
Chain of Histamine H2 receptor (P25021 whole entry): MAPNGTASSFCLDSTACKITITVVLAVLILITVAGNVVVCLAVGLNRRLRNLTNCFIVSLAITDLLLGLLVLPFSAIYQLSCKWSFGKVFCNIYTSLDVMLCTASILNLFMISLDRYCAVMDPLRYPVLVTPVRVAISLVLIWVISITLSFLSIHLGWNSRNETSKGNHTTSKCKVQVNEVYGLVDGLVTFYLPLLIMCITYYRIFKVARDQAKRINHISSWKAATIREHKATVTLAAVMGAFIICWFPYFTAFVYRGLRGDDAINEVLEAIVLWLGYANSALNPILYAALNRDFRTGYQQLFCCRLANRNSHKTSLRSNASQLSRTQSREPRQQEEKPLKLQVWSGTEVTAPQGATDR
Chain of Ribosomal protein S6 kinase alpha-1 (Q15418 whole entry): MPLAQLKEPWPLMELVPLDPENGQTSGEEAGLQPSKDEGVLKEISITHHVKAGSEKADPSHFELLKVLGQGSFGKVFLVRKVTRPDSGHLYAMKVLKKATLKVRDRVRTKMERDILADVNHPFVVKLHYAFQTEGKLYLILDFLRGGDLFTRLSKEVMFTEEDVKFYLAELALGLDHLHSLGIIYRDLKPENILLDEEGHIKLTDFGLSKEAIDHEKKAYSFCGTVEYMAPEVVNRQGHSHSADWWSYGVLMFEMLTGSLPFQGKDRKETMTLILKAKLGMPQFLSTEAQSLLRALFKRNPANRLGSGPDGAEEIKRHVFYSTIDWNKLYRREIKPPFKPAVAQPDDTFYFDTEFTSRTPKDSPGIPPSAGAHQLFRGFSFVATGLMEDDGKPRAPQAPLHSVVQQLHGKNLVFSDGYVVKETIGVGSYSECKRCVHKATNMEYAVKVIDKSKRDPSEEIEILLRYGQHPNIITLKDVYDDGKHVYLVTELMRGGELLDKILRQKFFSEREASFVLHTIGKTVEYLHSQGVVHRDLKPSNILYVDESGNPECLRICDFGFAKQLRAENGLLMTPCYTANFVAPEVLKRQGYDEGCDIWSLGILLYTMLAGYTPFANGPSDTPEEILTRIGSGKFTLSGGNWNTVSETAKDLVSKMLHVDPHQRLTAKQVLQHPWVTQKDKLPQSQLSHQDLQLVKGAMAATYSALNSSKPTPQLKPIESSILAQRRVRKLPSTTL
Description for HT-29: Antiproliferative activity against human HT-29 cells assessed as reduction in cell viability
Description for HeLa: Antiproliferative activity against human HeLa cells assessed as reduction in cell viability

`COc1cc2c(cc1OC)CN(Cc1ccc(-c3ccc(O)cc3)cc1)CC2`: the efflux ratio (commonly the permeability from basolateral to apical divided by that in the opposite direction, in the common usage) with MDR1 was 0.69.
On to `O=[N+]([O-])c1ccc(Nc2ccc(F)cc2)c2nonc12`, for which the pIC50 (usually the negative decadic logarithm of the IC50, by convention in mol/L) in series [1] is 5.40.
`O=c1[nH]ccc2cc(OC3CCNCC3)ccc12` [SAR-407899 FREE BASE]: the negative-log IC50 (pIC50) in the series with HASMC was 6.91. In addition, the values for the Activity in the series listed under Rattus norvegicus [2] and in the series filed under Rattus norvegicus [3] were -6 mmHg and -19 mmHg, respectively.
In the case of `CCn1c(-c2nonc2N)nc2cncc(CNC3CCNCC3)c21`, the negative-log IC50 (pIC50) in [4] is 6.57; in series [5] it was 5.72; in series [6], 6.81.
The compound `O=C(NCCSc1ccc([N+](=O)[O-])c2nonc12)c1cccnc1` gave a negative-log IC50 (pIC50) in the series with Influenza A virus of 6.00.
For the compound `COc1cc2c(cc1OC)CN(Cc1ccc(-c3ccc(OCCOc4nonc4OC)cc3)cc1)CC2`, the efflux ratio in the series on MDR1 is 0.6.
Turning to `O=C(O)[C@H](CC1CCC1)c1cc(Cl)c(OCC(F)(F)F)c(-c2ccc(C(F)(F)F)cc2)c1`, in [7], the negative logarithm of the EC50 (pEC50) (in general, −log10 of the EC50, conventionally taken in molar units) was 7.15.
With `O=[N+]([O-])c1ccccc1` [NITROBENZENE], the pH-dependent lipophilicity (logD) (commonly lipophilicity at a set pH, counting ionised and neutral species) in the series “physchem [8]” was 1.6.
Take `N#Cc1ccc(CCN2CCN(CCc3ccc4nonc4c3)CC2)cc1`: in [9], the pIC50 is 5.72.
In the case of `CCCOc1cccc2c1CCCC2CCCN1CCc2cc(OC)c(OC)cc2C1` (centres undefined), the efflux ratio with MDR1 amounted to 0.35.
Take `COc1ccc(C(=O)Nc2nc(NC(=O)c3ccccc3)nn2-c2ccccc2)cc1`: the negative logarithm of the IC50 (pIC50) in series [10] was 6.31.
`O=[N+]([O-])c1c(Nc2cc(F)cc(Cl)c2)ccc2nonc12` showed a pIC50 in series [11] of 7.00. Also, the logP – broadly, the decadic logarithm of the partition coefficient of the neutral form, usually between octanol and water – in “physchem [12]” stood at 3.99. For the same compound, in series [13], the pKd (usually the Kd on a negative log10 scale, so that one unit is a factor of ten) is 7.10.
As for `COc1ccc2c(c1)c(CC(=O)O)c(C)n2C(=O)c1ccc(Cl)cc1` [INDOMETHACIN], the pEC50 in the series on LNCaP is 3.62; in the series on HCT-116, 3.86; with HT-29 it was 3.51.
Turning to `O=C(O)c1nsnc1O`, the pIC50 on Lactate dehydrogenase was 6.85; in [14], 4.99. Besides, the results for the pEC50 with Plasmodium falciparum [15] and in the series with Plasmodium falciparum [17] were 3.84 and 4.12, respectively. Moreover, the pKi (as a rule, the Ki on a negative log10 scale, so that one unit is a factor of ten) in [16] was 6.54. Moreover, the 90% effect concentration (EC90) – broadly, the point of the concentration-response curve where the effect stands at 90% – with Plasmodium falciparum [17] was more than 170 µM.
For the compound `OC(c1cccc(-c2cc(N3CCCC3)c3nonc3c2)c1)C(F)(F)F` (centres undefined), the inhibition (as a rule, the drop in the measured response relative to a control, in per cent) in series [18] worked out at 88.9%.
`CC(C)CC(C(=O)O)c1cc(Cl)c(OCC2CC2)c(-c2ccc(C(F)(F)F)cc2)c1` (centres undefined) gave a pEC50 in series [19] of 7.15.
Turning to `O=C(O)c1conc1O`, the pIC50 was 5.96 on Lactate dehydrogenase and 4.27 in [14]. For the same compound, the Cmax (in general, the peak of the concentration-time curve) was 158 µM in [20] and 153 µM in series [24]. In addition, the Activity with Plasmodium falciparum [21] is reported as 30%; in the series with Plasmodium falciparum [25], 100%. Also, the half-life (commonly the time needed for the level to fall by half in the phase considered) in series [22] is 1.1 h; in [23] it was 1.6 h. The negative-log Ki (pKi) in [16] was 6.33. For the same compound, in the series with Plasmodium falciparum [17], the negative-log EC50 (pEC50) is 4.13. In the series on Plasmodium falciparum [17], the EC90 was more than 200 µM.
Compound `Nc1nonc1/C(=N/O)NCc1ccccc1` had a negative-log EC50 (pEC50) with HeLa of 6.00.
In the case of `CCn1c(-c2nonc2N)nc2cnc(Oc3cccc(NC(=O)c4ccc(OCCN5CCOCC5)cc4)c3)cc21` [GSK-269962A], the Activity in the series with Rattus norvegicus [26] is on record as 0 bpm; in the series with Rattus norvegicus [27], 0 mmHg; with Rattus norvegicus [28], 30 bpm; in the series with Rattus norvegicus [29] it was -20 mmHg; with Rattus norvegicus [30] it was 10 bpm.
Turning to `O=C(O)c1nonc1NCn1nnnc1Cc1cccc(Cl)c1`, the pEC50 in the series with BaF3 was 5.52.
With `CC(=O)N[C@@H](CC(=O)O)C(=O)N[C@@H](CCC(=O)O)C(=O)N[C@H](C(=O)N[C@H](C=O)CC(=O)O)C(C)C`, in the series with NT2, the pEC50 is less than 4.00.
As to `CN(C)Cc1ccc(CSCCNc2nonc2NCCCc2ccccc2)o1`, the pKi on Histamine H2 receptor is 8.70.
